{
  "source": "patent US10551384B2",
  "about": "“MTOR kinase mutations and methods of use thereof” (RUTGERS, THE STATE UNIVERSITY OF NEW JERSEY, priority 2016, dated 2020)",
  "key": {"[1]": {"tested_on": "xenograft tumors derived from SW480 cells carrying homozygous mTOR(L2185A) alleles", "experiment": "SW480 xenograft tumor model, mTOR(L2185A)", "format": "in vivo, mice", "method": "(§1) FIGS. 6A-E. L2185A mutation renders resistance of xenograft tumors to mTOR kinase inhibitors. (FIG. 6A) Mice bearing xenograft tumors derived from SW480 cells expressing WT mTOR were administered with INK128 at 1 mg/kg or 0.3 mg/kg, once daily via intraperitoneal injection. Shown are representative animals and excised tumors after drug treatment. (FIG. 6B) Same as FIG. 6A except xenograft tumors were derived from SW480 carrying homozygous mTOR(L2185A) alleles. (FIG. 6C) Tumor volume measurement for SW480 xenograft tumors expressing mTOR (WT) (expressed as means±SD; n=8, *P<0.01, vs. vehicle control). (FIG. 6D) Tumor volume measurement for SW480 xenograft tumors expressing mTOR(L2185A) mutant (expressed as means±SD; n=8). (FIG. 6E) Tissue extracts from xenograft tumors at the end of treatment with or without 1 mg/kg INK128 were analyzed for the level of P-S6K, S6K, P-S6, S6, P-4E-BP1, 4E-BP1, P-AKT and AKT was analyzed by immunoblot. Six tumor samples from each animal group were shown with each lane representing an individual tumor sample.\n(§2) Female athymic NCr-nu/nu mice (4-6 weeks old) were obtained from Taconic Farms. […] Tumor volume was calculated by the following formula: tumor volume (mm^3)=(shorter diameter^2× longer diameter)/2 and are presented as means±SD (n=8) (Zhang, Y., and Zheng, X. (2012). Cell Cycle 11, 594-603). […]"}, "[2]": {"tested_on": "Flag-mTOR(L2185A) in HEK293T cells", "experiment": "mTOR signaling immunoblot in HEK293T cells transiently expressing Flag-mTOR(L2185A)", "format": "cell-based, human", "conditions": "various concentrations, 1 hr, vs WT Flag-mTOR", "method": "(FIG. 10A) Flag-mTOR(L2185A), when transiently expressed in HEK293T cells, confers drug resistance to mTOR kinase inhibitors. HEK293T cells transiently expressing WT and L2185A mutant Flag-mTOR were treated with various concentrations of INK-128, OSI-027 for 1 hr. The effect on the level of P-S6K, S6K, P-4E-BP1, 4EB-P1, P-AKT and AKT was analyzed by immunoblot. (FIG. 10B) Sequencing verification of genome-engineered SW480 and H460 cells carrying homozygous and heterozygous L2185A mutations in mTOR locus. (FIG. 10C) Independent clones of engineered SW480 cells confer similar drug resistance. Cells were treated with various concentrations of AZD8055 and INK-128 for 2 days. Cell growth was measured by SRB assay. Clones #1, 3 carry heterozygous L2185A mutation. Clones #2, 4 carry homozygous L2185A mutation. Data represent means±SD in three independent experiments. (FIG. 10D) SW480 cells carrying heterozygous and homozygous mTOR(L2185A) mutant alleles have similar drug resistance to mTOR kinase inhibitors. SW480 cells carrying homozygous WT and L2185A mutant mTOR alleles were treated with various concentrations of AZD8055, INK-128, OSI-027, and PP242 for 2 days. Cell growth was measured by SRB assay. […] Cell growth was measured by SRB assay. […] The effect on level of P-S6K, P-4E-BP1 and P-AKT was analyzed by immunoblot. […] The growth of H460 cells was measured by SRB assay. […]"}, "[3]": {"tested_on": "xenograft tumors derived from SW480 cells expressing WT mTOR", "experiment": "SW480 xenograft tumor model, WT mTOR", "format": "in vivo, mice", "method": "as §1, §2"}, "[4]": {"conditions": "1 mg/kg or 0.3 mg/kg once daily, intraperitoneal injection"}, "[5]": {"conditions": "1 mg/kg, tumor extracts at end of treatment, immunoblot"}},
  "data": [
    {"smiles": "CC(C)n1nc(-c2ccc3oc(N)nc3c2)c2c(N)ncnc21", "note": "[INK128]", "values": [
      {"measurement": "growth of mTOR(L2185A) xenograft tumors", "setting": "[1]; [4]", "result": "little or no effect"},
      {"measurement": "mTORC1 and mTORC2 signaling in mTOR(L2185A) xenograft tumors", "setting": "[1]; [5]", "result": "drug-resistance in mTORC1 and mTORC2 signaling"},
      {"measurement": "drug resistance of mTOR signaling (P-S6K, P-4E-BP1, P-AKT) with Flag-mTOR(L2185A)", "setting": "[2]", "result": "confers resistance"},
      {"measurement": "growth of WT mTOR xenograft tumors", "setting": "[3]; [4]", "result": "strongly attenuates growth"},
      {"measurement": "mTOR signaling in WT mTOR xenograft tumors", "setting": "[3]; [5]", "result": "complete blockadge of mTOR signaling"}
    ]}
  ]
}
